Assay results reported in PubChem BioAssay (NCI).
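Method: 48-hour compound exposure of cells in 96-well plates, five concentrations, linear interpolation of endpoints. GI50 = concentration required for 50% inhibition of growth. Definition used: TGI = concentration required for complete inhibition of growth.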

System: RPMI-8226 leukemia
Experiment: NCI tumour cell line growth inhibition, 48 h

Structure (SMILES)	TGI [µM]	GI50 [µM]
COC1=C(Br)C(=O)c2nc(C)ccc2C1=O	> 22.6	–
O=C(CSC(c1ccccc1)c1ccccc1)N/N=C/c1ccco1	4.45	1.94
COc1ccc2c3c(Nc4ccc(/C(C)=N/O)cc4)[nH]c4ccccc4c-3c(N=O)c2c1	5.14	2.52
N.N.NCCCCCCCCCN.O=C([O-])CC(=O)[O-].O=C([O-])CC(=O)[O-].[Pt+4].[Pt+4]	> 100	> 100
CCN(CC)c1cc2oc3cc(N)cc(=N)c-3nc2cc1C	23.7	1.03
CC(=O)OC1C2CCC1C1C2C2(Cl)C(Cl)=C(Cl)C1(Cl)C2(Cl)Cl (stereo not drawn)	27.4	–
CC(C(=O)n1c2ccccc2c2ccccc21)N(c1ccccc1)c1ccccc1 (stereo not drawn)	36.2	–
CCOC(=O)Cn1c(=O)n(C)c(=O)c2c1ncn2Cc1ccccc1	> 100	–
CCCCc1c2c(nc3c1CCC/C3=C\c1ccccc1)/C(=C/c1ccccc1)CCC2	> 100	–
CC(C)(C)OC(=O)N1N=NC2C1C1CC(OCc3ccccc3)(OCc3ccccc3)C2O1 (stereo not drawn)	63.6	–
O=C1CSC(c2ccc(-c3nc4ccccc4s3)cc2)=N1	52.6	23.2
O=C1C(=O)N(c2cc(Cl)ccc2Cl)C(=O)C(=O)C1c1nc2ccccc2o1	> 100	–
O=C(O)C12CC3(C(=O)O)CC(C(=O)O)(CC(C(=O)O)(C1)C3=O)C2=O	> 100	–
O=S1(=O)OCCOS(=O)(=O)C1Cl	> 100	–
COc1cc(C2C(C(=O)Nc3cc(F)c(F)cc3F)=C(C)NC(C)=C2C(=O)Nc2cc(F)c(F)cc2F)ccc1O	47.3	–
Nc1ccc2nc3n(c2c1)C(=O)c1ccccc1-3	> 100	–
CO/N=C(/C)c1cccc(Nc2cc(-c3ccccc3)nc3ccc(OC)cc23)c1	8.28	3.12
Cc1cccc(N=C2NC(=O)C(CC(=O)Nc3cccc(C)c3C)S2)c1 (stereo not drawn)	> 100	–
Cc1nn(C(=O)c2ccc(Cl)cc2)c2c1C(c1ccc(O)cc1)SC(N)=N2 (stereo not drawn)	> 10	–
O=C(O)CSc1n[nH]c(Cc2ccccc2)n1	> 100	–
O=C1C(Cl)=C(Nc2ccccc2O)C(=O)N1Cc1ccccc1	27.2	12.5

System: LOX IMVI melanoma
Experiment: NCI tumour cell line growth inhibition, 48 h

Structure (SMILES)	TGI [µM]	GI50 [µM]
Nc1ccc2[nH]cc(CCC(=O)O)c2c1	> 100	–
Cc1cccc(C(C)C)c1NC(=O)C(=O)C(C(=O)c1ccccc1F)C1OC(=O)c2ccccc21 (stereo not drawn)	32.7	–
Cc1ccc(Nc2nnc(-c3ccc4c(c3)OCO4)o2)c(C)c1	> 100	–
S=C1SC2=Nc3ccccc3CN2C2=NCCN12	83.2	25.9
CC1=C(c2cc(C(=O)Nc3ccc(Cl)cc3)nc(=S)[nH]2)Sc2ccccc2N1	> 100	–
O=C(O)CN(c1ccccc1)S(=O)(=O)c1ccc([N+](=O)[O-])cc1	> 100	–
CC1=C(C(=O)NNS(=O)(=O)c2ccc(C)cc2)CC(C(=O)NNS(=O)(=O)c2ccc(C)cc2)=C(C)N1	> 100	–
Cc1cc(C)n(-c2nnc3n2N=C(c2ccc(-c4ccccc4)cc2)CS3)n1	> 100	3.36
Clc1cc(Cl)cc(Nc2ccc3cc(OCCCN4CCOCC4)ccc3n2)c1	3.05	1.62
[F][Sn]([F])([c]1ccccc1)[c]1ccccc1	3.29	1.7
N#CC(C(=O)CCC(=O)Nc1cccc(C(F)(F)F)c1)c1ccc(Cl)cc1 (stereo not drawn)	> 100	–
Cc1cc(C(C)(C)C)cc(Cc2cc(C(C)(C)C)cc(Cc3cc(C(C)(C)C)cc(C)c3O)c2O)c1O	21	–
COC(=O)/C(=C\c1ccc(N(CCC#N)CCC#N)cc1)NC(=O)c1cc([N+](=O)[O-])ccc1Cl	> 100	–
COC1=C(Br)C(=O)c2nc(C)ccc2C1=O	24.3	–
O=C(CSC(c1ccccc1)c1ccccc1)N/N=C/c1ccco1	5.2	1.48
N.N.NCCCCCCCCCN.O=C([O-])CC(=O)[O-].O=C([O-])CC(=O)[O-].[Pt+4].[Pt+4]	> 100	> 100
CC(=O)OC1C2CCC1C1C2C2(Cl)C(Cl)=C(Cl)C1(Cl)C2(Cl)Cl (stereo not drawn)	29.1	–
CC(C(=O)n1c2ccccc2c2ccccc21)N(c1ccccc1)c1ccccc1 (stereo not drawn)	30.6	–
CCCCc1c2c(nc3c1CCC/C3=C\c1ccccc1)/C(=C/c1ccccc1)CCC2	> 100	–
